Experimental data: paper PMC5513444, “The synthesis and evaluation of triazolopyrimidines as anti-tubercular agents” (Bioorganic & Medicinal Chemistry, 2017)
≈ marks a conversion by molar mass, not a printed value. Where “and” joins values, the source holds several entries; their conditions need not be identical. Identical values can stand only once.

Columns and labels:
[1] = Turnover by rat liver microsomes; format: in vitro ADME
Procedure: (§1) Based on in silico ADME predictions, three compounds were chosen to cover a range of cLogP values and were evaluated for their in vitro microsomal stability (Table 7). Rapid metabolism of compound 44 was observed, in rodent and human liver microsomes. The para-OCF3 analog 48 was also rapidly metabolized. The amide (49) had improved in vitro microsomal stability, with only 12% loss after 30 min in mouse microsomes, 22% loss in rat microsomes and 31% loss in human microsomes. The difference in stability for these three compounds is probably due to presence of more than one oxidatively-labile carbon in 44 and 48 (both have a two carbon linker), while 49 has only one such soft spot, although these have not been confirmed with metabolite identification studies.

[2] = Turnover by mouse liver microsomes; format: in vitro ADME
Procedure: as §1

[3] = Turnover by human liver microsomes; format: in vitro ADME
Procedure: as §1

[4] = system: HepG2 cells; test: Cytotoxicity against HepG2 cell line (CellTiter-Glo); format: cell-based; details: for Selectivity index (SI) = IC50/MIC90: HepG2 IC50 / M. tuberculosis MIC90; for IC50: Homo sapiens, 48 h, HepG2, 2 days incubation, read-out: IC50 (concentration required to reduce the viability of HepG2 cells by 50%)
[5] = In vivo mouse PK after oral and intravenous administration; details: male mice, oral 10 mg/kg
Procedure: The oral exposure of the three compounds was evaluated in male mice by comparing exposures following oral (PO) and intravenous (IV) administration of 10 and 1 mg/kg doses of compounds, respectively (Table 7).

[6] = system: M. tuberculosis H37Rv; test: MIC90 against M. tuberculosis in liquid medium; format: cell-based, Mycobacterium tuberculosis; details: Mycobacterium tuberculosis, H37RV, 120 h; liquid medium 7H9-Tw-OADC, aerobic, 5 days; average ± SD of two independent experiments; read-out: MIC (MIC90, minimum concentration required to inhibit growth of M. tuberculosis by 90%)
[7] = Fraction unbound in mouse plasma; format: in vitro ADME; details: read-out: Mouse Fu,pl (fraction unbound in plasma)
From the text: Table 7 In vitro ADME and in vivo PK. | column: Mouse Fu,pl ^a

[8] = system: Pseudomonas aeruginosa HER1018 (PAO1); test: MIC99 on solid medium, P. aeruginosa; format: cell-based; details: PAO1, 24 h, tryptic soy agar, 1 day
[9] = system: Bacillus subtilis Marburg; test: MIC99 on solid medium, B. subtilis; format: cell-based; details: nutrient agar, 28 °C, 3–4 days
[10] = system: Mycobacterium smegmatis mc^2155; test: MIC99 on solid medium, M. smegmatis; format: cell-based; details: Mycolicibacterium smegmatis, 3–4 days
[11] = system: Saccharomyces cerevisiae Y187; test: MIC99 on solid medium, S. cerevisiae; details: YPD agar, 3–4 days
[12] = system: Escherichia coli DH5α; test: MIC99 on solid medium, E. coli; format: cell-based; details: 24 h, LB agar, 1 day
[13] = system: M. tuberculosis; test: Kill kinetics against M. tuberculosis in liquid culture; format: cell-based, Mycobacterium tuberculosis; details: for Kill of non-replicating M. tuberculosis: non-replicating bacteria (starvation conditions, PBS-Ty), over 14–21 days; for Activity against replicating M. tuberculosis (kill kinetics): replicating bacteria in 7H9-Tw-OADC, over 21 days
[14] = system: M. tuberculosis H37Rv; test: MIC99 on solid medium, M. tuberculosis; format: cell-based, Mycobacterium tuberculosis; details: solid medium 7H10-OADC, 4 weeks, lowest concentration yielding less than 1% growth
[15] = Mycobacterium tuberculosis, H37RV, 672 h

Compound	% turnover by liver microsomes in 30 min, Rat [1]	% turnover by liver microsomes in 30 min, Mouse [2]	% turnover by liver microsomes in 30 min, Human [3]	Selectivity index (SI) = IC50/MIC90 [4]	IC50 [4] [µM]	Cmax [5] [nM]	PO Tmax [5] [h]	PO t1/2 [5] [h]	MIC90 [6] [µM]	fraction unbound [7]	MIC99 [8] [µM]	MIC99 [9] [µM]	MIC99 [10] [µM]	MIC99 S. cerevisiae [11] [µM]	MIC99 [12] [µM]	Kill of non-replicating M. tuberculosis [13]	Activity against replicating M. tuberculosis (kill kinetics) [13]	MIC99 [14, 15] [µM]	MIC99 [14] [µM]	PO AUC [5] [µM·h]
Cc1ccc(CCNc2cc(-c3ccccc3)nc3ncnn23)cc1 [Compound 44, N-(4-Methylphenethyl)-5-phenyl-[1,2,4]triazolo[1,5-a]pyrimidin-7-amine]	99.2%	98.2%	68.1%	43	53	604	0.25	1.05	1.4 ± 0.5 (≈ 0.461 µg/mL)	0.015	–	–	–	–	–	–	–	–	–	–
FC(F)(F)Oc1ccc(CCNc2cc(-c3ccccc3)nc3ncnn23)cc1 [Compound 48, 5-Phenyl-N-(4-(trifluoromethoxy)phenethyl)-[1,2,4]triazolo[1,5-a]pyrimidin-7-amine]	52.7%	52.1%	32.8%	>27	> 100	958	0.75	2.49	3.9 ± 1.1 (≈ 1.56 µg/mL)	0.007	> 100	> 10	> 10	>10	> 10	2–3 log	static activity	1.6 (≈ 0.639 µg/mL)	< 20	2.75
COc1ccc(CC(=O)Nc2cc(-c3ccccc3)nc3ncnn23)cc1 [Compound 49, 2-(4-Methoxyphenyl)-N-(5-phenyl-[1,2,4]triazolo[1,5-a]pyrimidin-7-yl)acetamide]	22% and 21.8%	12% and 12.5%	31% and 30.6%	>73	> 100	62.8	1.5	–	1.5 ± 0.7 (≈ 0.539 µg/mL)	–	> 10	> 10	> 10	>10	> 10	2–3 log	static activity	3.1 (≈ 1.11 µg/mL)	< 20	0.187
